The subject of series [1] is LNCaP cells. The series is classed as cell-based. How it is done: (§1) The cytotoxicity of compounds 1–3, ^natCu-NOTA-TP-PSMA, and cisplatin (platinum-based drug) were assessed with PrestoBlue, a resazurin-based method to assess mitochondrial function in LNCaP and HEK-293 cells at 24, 48, and 72 h. Effective concentration (EC50) values summarized in Table 3 were calculated from the dose–response curves of each compound (Figure S7).
(§2) Cytotoxicity was evaluated using a resazurin-based assay (PrestoBlue) in 96-well plates. LNCaP (15,000 cells/well) and HEK-293 (10,000 cells/well) were seeded and incubated for 72 h. Cells were then treated with serial dilutions of [^64Cu]Cu-NOTA-TP-PSMA and controls for 24, 48, or 72 h. After treatment, cells were rinsed with PBS and incubated with PrestoBlue reagent for 40 min. Fluorescence was measured at 570 nm (excitation) and 610 nm (emission). Background readings from blank wells were subtracted. Cell viability was calculated relative to untreated controls. IC50 values were determined using dose–response curves. Controls included [^64Cu]Cu-NOTA-TP, [^64Cu]Cu-NOTA-PSMA, ^natCu-NOTA-TP-PSMA, and cisplatin (0–500 µM in 0.9% saline). All assays were performed in triplicate and all data presented in Results are the average of three independent experiments. TP conjugates were dissolved in 1% DMSO and diluted in saline. Inhibitory concentration 50 (IC50) values were calculated to quantify the effectiveness of the compounds.

Series [2] deals with HEK-293 cells. The series is described as follows: PrestoBlue cytotoxicity assay in HEK-293 cells. The class given is cell-based, human. The following applies: read-out: EC50 HEK293. The protocol: as §1, §2
The test system of series [3] is LNCaP cells. Briefly: Cellular uptake and internalization in LNCaP cells. The series is classed as cell-based. The note with it: LNCaP, 24 h, 37 °C, 1 nM. The protocol: LNCaP cells (1 × 10^5 cells/well) were seeded into 24-well plates and incubated for 72 h. Cells were treated with 1nM [^64Cu]Cu-NOTA-TP-PSMA or control monomers ([^64Cu]Cu-NOTA-TP and [^64Cu]Cu-NOTA-PSMA), each containing 0.1 MBq of radioactivity in RPMI-1640 medium.
Uptake and internalization were assessed at multiple time points (30 min to 24 h). At each timepoint, cells were washed with cold PBS, detached with trypsin, and counted using a hemocytometer. For internalization studies, surface-bound radioactivity was removed using 50 mM glycine-HCl buffer (pH 2.2) for 5 min, followed by additional PBS washes.
To investigate the internalization mechanism, parallel experiments were conducted at 4 °C to evaluate passive versus active uptake. Receptor specificity was assessed via blocking assays using 1 µM ^natCu-NOTA-TP-PSMA (1000-fold excess) co-incubated with 1 nM radiolabeled tracer. Post-incubation, intracellular radioactivity was quantified using a HIDEX gamma counter. All results were normalized to 10^6 cells and expressed as percent counts per minute per million cells (%CPM/10^6 cells).

The subject of series [4] is LNCaP cells. The series is described as follows: Efflux (retention) study in LNCaP cells. The class given is cell-based. The note with it: Table S3 first part (LNCaP). The protocol:
(§3) Efflux studies were conducted by incubating the cells with the compound for an initial period of 1 h, after which the incubation medium was replaced with fresh, compound-free medium. The retained intracellular radioactivity was then measured at various time points up to 24 h and expressed as the percentage of retention relative to the 0-h time point, defined as the time immediately after medium replacement.

In series [5] the test system is HEK-293 cells. The series is described as follows: Efflux (retention) study in HEK-293 cells. The following applies: Table S3 second part (HEK-293). The series is classed as cell-based, human. The protocol:
as §3

Series [6] relates to LNCaP cells. The series is described as follows: Nuclear localization in LNCaP cells. The class given is cell-based. How it is done:
(§4) To assess nuclear localization, LNCaP and HEK-293 cells were incubated with 1 MBq of [^64Cu]Cu-NOTA-TP-PSMA 1 for 24, 48, and 72 h. Nuclear extraction was performed following a previously established protocol. Following incubation, cells were lysed and fractionated using cytoskeletal buffer to isolate nuclear components. Nuclear and cytoplasmic radioactivity were measured using a HIDEX automatic gamma counter. Data were used to evaluate time-dependent nuclear accumulation of the tracer.

Series [7] relates to HEK-293 cells. Briefly: Nuclear localization in HEK-293 cells. The class given is cell-based, human. The protocol:
as §4

The nature of series [8]: Solubility in aqueous media. The series is classed as physicochemical.

Like-named read-outs stand apart in the source and are kept apart here.

4 molecules from PMC12692291, “Development and In Vitro Evaluation of [^64Cu]Cu-NOTA-TP-PSMA, a Novel Radiotheranostic Agent Against Prostate Cancer” (International Journal of Molecular Sciences, 2025) can be followed below.

For orientation: EC50 means the concentration that produces a half-maximal response.

`N.N.[Cl][Pt][Cl]` [Cisplatin, cisplatin, reference compound]: the 50% effective concentration (EC50) was determined as 81 µM in the series on LNCaP cells [1] (24 h); 30.4 µM in the series on LNCaP cells [1] (48 h); 22.9 µM in the series on LNCaP cells [1] (72 h); 31.3 µM in the series on HEK-293 cells [2] (24 h); 41 µM in the series on HEK-293 cells [2] (48 h); 27.5 µM in the series with HEK-293 cells [2] (72 h).
As to `O=C(O)CC[C@H](NC(=O)N[C@@H](CCCCNC(=O)[C@@H](Cc1ccc2ccccc2c1)NC(=O)[C@H]1CC[C@H](CNC(=O)CNC(=O)COCCOCCNC(=O)CN2CCN(CC(=O)O)CCN(CC(=O)O)CC2)CC1)C(=O)O)C(=O)O` [[^64Cu]Cu-NOTA-PSMA 3, metal not drawn], the Internalization with LNCaP cells [3] is 16.7 ± 1.6 %CPM/10^6 cells. Besides, the Uptake in the series on LNCaP cells [3] was determined as 22.8 ± 1.2 %CPM/10^6 cells. Further, the Retained activity is recorded as 100 ± 0 %CPM/106 cells with LNCaP cells [4] (0 h after medium replacement); 54.8 ± 10.0 %CPM/106 cells in the series with LNCaP cells [4] (1 h); 49.6 ± 8.1 %CPM/106 cells in the series on LNCaP cells [4] (2 h); 46.6 ± 8.1 %CPM/106 cells in the series on LNCaP cells [4] (4 h); 39.2 ± 7.9 %CPM/106 cells in the series on LNCaP cells [4] (24 h); 100 ± 0 %CPM/106 cells in the series on HEK-293 cells [5] (0 h after medium replacement). Also, the Retained activity was 59.4 ± 22.3 %CPM/106 cells with HEK-293 cells [5] (1 h), 45.1 ± 14.5 %CPM/106 cells in the series with HEK-293 cells [5] (2 h), 38.4 ± 4.1 %CPM/106 cells with HEK-293 cells [5] (4 h) and 22.0 ± 1.5 %CPM/106 cells in the series on HEK-293 cells [5] (24 h). Also, the “nuclear uptake fold difference LNCaP vs HEK-293” value in the series with LNCaP cells [6] (24 h) is listed as 5.8 fold; in the series on LNCaP cells [6] (72 h), 1.5 fold. For the same molecule, the entries for the “nuclear uptake in LNCaP cells” value in the series with LNCaP cells [6] (48 h) and in the series with LNCaP cells [6] (72 h) were 0.30 ± 0.13% and 0.35 ± 0.07%, respectively. Moreover, the “Nuclear uptake LNCaP” value with LNCaP cells [6] (Table S4, 24 h) came out at 0.44 ± 0.25 %ID/10⁶ cells; in the series on LNCaP cells [6] (Table S4, 48 h), 0.77 ± 1.02 %ID/10⁶ cells; in the series on LNCaP cells [6] (Table S4, 72 h), 0.35 ± 0.07 %ID/10⁶ cells. Further, the “nuclear uptake in HEK-293 cells” value in the series on HEK-293 cells [7] (48 h) is listed as 0.13 ± 0.05%; in the series with HEK-293 cells [7] (72 h), 0.23 ± 0.04%. The “Nuclear uptake HEK-293” value with HEK-293 cells [7] (Table S4, 24 h) was determined as 0.07 ± 0.05 %ID/10⁶ cells; with HEK-293 cells [7] (Table S4, 48 h), 0.13 ± 0.05 %ID/10⁶ cells; with HEK-293 cells [7] (Table S4, 72 h) it was 0.23 ± 0.04 %ID/10⁶ cells. In addition, in the series on LNCaP cells [1], the “fold less cytotoxic than compound 1” value is listed as 5–16 fold.
Take `O=C(O)CC[C@H](NC(=O)N[C@@H](CCCCNC(=O)[C@@H](Cc1ccc2ccccc2c1)NC(=O)[C@H]1CC[C@H](CNC(=O)CNC(=O)COCCOCCNC(=O)CN2CCN(CC(=O)O)CCN(CC(=O)O)CC2)CC1)C(=O)O)C(=O)O` [^natCu-NOTA-PSMA, metal not drawn]: the solubility result in series [8] is on record as “readily soluble in aqueous media”.
As for `O=C(O)CC[C@H](NC(=O)N[C@@H](CCCCNC(=O)[C@@H](Cc1ccc2ccccc2c1)NC(=O)C1CCC(CNC(=O)C(CCCCNC(=O)c2cc3[n+]4c(c2)-c2cccc[n+]2[Pt-2]4([Cl])[n+]2ccccc2-3)NC(=O)COCCOCCNC(=O)CN2CCN3CCN(CC2)CC(=O)[O][Cu][O]C(=O)C3)CC1)C(=O)O)C(=O)O` (stereo partly drawn) [^natCu-NOTA-TP-PSMA], the solubility entry in series [8] was “reduced solubility”.
